{
  "source": "patent US6403055B1",
  "about": "“Diagnostic imaging contrast agent with improved in serum relaxivity” (Dibra S.p.A., priority 1996, dated 2002)",
  "key": {"[1]": {"experiment": "Relaxivity (r1, r2) in saline", "type": "physicochemical", "details": "NaCl 0.15M in water - pH 7.3 - 20 MHz - 39° C.", "excerpt": "(§1) Relaxivity values of the contrast agent of the present invention have been tested either in saline or in human serum obtained by Seronorm™ Human, freeze-dried human serum produced by Nycomed Pharma AS, Oslo, Norway. Serum obtained from said Seronorm™ is substantially equivalent to the fresh one, so its use in the relaxivity determination grants a good picture of the “in vivo” behaviour and, further, an excellent reproducibility of this test."}, "[2]": {"experiment": "Relaxivity (r1, r2) in human serum (Seronorm™ Human)", "type": "physicochemical", "details": "Between 0 and 1 mM (Seronorm™ Human) - 20 MHz - 39° C.", "excerpt": "as §1\nThe compounds object of the present invention are characterised by very high r1 and r2 relaxivity values. When measured in Seronorm™ Human at 20 MHz, at a temperature of 39° C., and at a concentration comprised from 0 to 1 mM, the compounds of the present invention have r1 relaxivity equal to or, preferably, higher than 15 s^−1mm^−1."}},
  "data": [
    {"smiles": "CCC(C)C(C(=O)[O-])N(CCN(CCN(CC(=O)[O-])C(C(=O)[O-])C(C)CC)[C@H](C(=O)[O-])[C@@H](C)CC)CC(=O)[O-].[Gd+3].[Na+].[Na+]", "note": "(relative stereo) [Compound 2, [[[1S-[1R*(1R*,2R*),2R*]]-N,N-Bis[2-[(carboxymethyl)(1-carboxy-2-methylbutyl)amino]ethyl]-L-isoleucinate-(5-)]gadolinate(2-)]disodium salt.]", "values": [
      {"measurement": "Relaxivity Saline r1", "setting": "[1]", "result": 5.07, "unit": "mM⁻¹ s⁻¹"},
      {"measurement": "Relaxivity Serum r1", "setting": "[2]", "result": 11.9, "unit": "mM⁻¹ s⁻¹"}
    ]}
  ]
}
